According to patent publication US20070197560A1, “cGMP PDE 5 inhibitors for inhalation in the treatment of sexual dysfunction” (priority 1998, published 2007):

How the values were obtained:
[1] = design: species or system Male Wistar:Han rats; settings: rat, in vivo, inhaled or intranasal, 2.1 umol/kg, pH 6
Method: Male Wistar:Han rats used for this model are supplied by Harlan UK Ltd at 105 days of age and approximately 350 g weight. They are fed ad libitum with a standard laboratory diet and housed under controlled conditions (12 hours light/dark cycle; 20° C.) for at least one week prior to the experiment.
Compound A is dissolved, at a concentration of 1.75 mg/ml in 0.9% saline which has been acidified with 1M aqueous HCI (5 μl), giving a clear solution of pH 5.0. To the solution is added 1M aqueous NaOH (2μl) to increase the pH to 6.0, resulting in a very fine suspension. […] Each animal receives a 2.1 μmol/kg dose in 200 μl of suspension.
The following surgical procedure is used to prepare the animals for the experiment: the animals are anaesthetised, initially with 4% halothane, maintained with 2% halothane, both in a 1:1 oxygen: nitrous oxide mixture carrier. The anaesthetised animals are shaved on their ventral neck and craniodorsal back, then swabbed with a solution of 5% Hibitane in a 70% solution of ethanol in water. […] The patency of the cannula is assessed immediately before experimentation. […]
Withdrawn blood samples are analysed as follows: […]

[2] = rodent pharmacokinetic model simulating inhalation: intratracheal dry powder blend with lactose; settings: rat
Method: (§1) A calculated nominal dose of 8.4 μmol/kg is administered to each of 3 male Wistar:Han rats by administration directly into the trachea via the mouth and vocal chords from a Penn-Century dry powder delivery device actuated via a 2 ml syringe containing air as a propellent.
(§2) A calculated nominal dose of 2.1 μmol/kg is administered to each of 4 male Wistar:Han rats by administration directly into the trachea via the mouth and vocal chords from a Penn-Century dry powder delivery device actuated via a 2 ml syringe containing air as a propellent.
(§3) Each of 3 animals receives a dose equivalent to 2.1 μmol/kg.

[3] = in vivo; settings: male, Wistar:Han, rat, inhaled or intranasal, 2.1 umol/kg
Method: as §1, §2, §3

CCCc1nn(C)c2c(=O)[nH]c(-c3cc(S(=O)(=O)N4CCN(C)CC4)ccc3OCC)nc12 [Compound A, 5-[2-ethoxy-5-(4-methylpiperazinylsulfonyl)phenyl]-1-methyl-3-n-propyl-1,6-dihydro-7H-pyrazolo[4,3-d]pyrimidin-7-one]
Tmax (absorption time; time to maximum concentration in plasma) [1]: 5 min
time to peak plasma concentration (absorption time Tmax) ([2]; citrate salt micronised to less than 5 μM, diluted by weight to 40% in lactose, nominal dose 8.4 μmol/kg, 3 rats): 2 min

CCOc1cnccc1-c1nc2n(C3CCCC3)[nH]c(CC)c-2c(=O)n1 [Compound C, 1-cyclopentyl-3-ethyl-6-(3-ethoxy-4-pyridyl)-pyrazolo[3,4-d]pyrimidin-4-one]
Tmax [3]: 2 to 20 min

CCCOc1ccc(NS(C)(=O)=O)cc1-c1nc2c(c(C)nn2C)c(=O)[nH]1 [Compound D, 1,3-dimethyl-6-(2-propoxy-5-methanesulfonylamidophenyl)-1,5-dihydropyrazolo[3,4-d]pyrimidin-4-one]
absorption time T max ([2]; 6% blend with lactose, 2.1 μmol/kg): 10 min
